From PubChem BioAssay (NCI)
Values joined by “and” are separate entries in the source; they are usually repeats but may differ in a detail not shown here. Equal entries are not always repeated.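 In this assay, cells in 96-well plates receive the compound at five concentrations for 48 hours. Endpoints are linearly interpolated between the surrounding concentrations. TGI denotes the concentration required for complete inhibition of growth.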

Assays:
Assay in all cases: growth of human tumour cells (NCI), 48 h
MALME-3M melanoma = system: MALME-3M melanoma
HS 578T breast = system: HS 578T breast
HCT-116 colon = system: HCT-116 colon
DU-145 prostate = system: DU-145 prostate
SK-MEL-28 melanoma = system: SK-MEL-28 melanoma
SK-MEL-5 melanoma = system: SK-MEL-5 melanoma
OVCAR-8 ovarian = system: OVCAR-8 ovarian
SK-MEL-2 melanoma = system: SK-MEL-2 melanoma
UO-31 renal = system: UO-31 renal
U251 CNS = system: U251 CNS

SMILES | TGI (MALME-3M melanoma) | TGI (HS 578T breast) [µM] | TGI (HCT-116 colon) [µM] | TGI (DU-145 prostate) [µM] | TGI (SK-MEL-28 melanoma) [µM] | TGI (SK-MEL-5 melanoma) [µM] | TGI (OVCAR-8 ovarian) [µM] | TGI (SK-MEL-2 melanoma) [µM] | TGI (UO-31 renal) [µM] | TGI (U251 CNS) [µM]
Cc1cc(-c2[nH]c(C(=O)O)cc2I)on1 | > 100 µM | > 100 | > 100 | > 100 | > 100 | > 100 | 81.9 | > 100 | > 100 | > 100
COc1ccc2[nH]c(Cl)c(/C=C3/C(=O)Nc4cc(C)c(OC)cc43)c2c1 | 18.2 µM | 20.9 | 15.7 | 29.4 | 22.1 | 6.32 | 25.7 | 7.8 | 28.5 | 18
COC(=O)C(C)(N=Cc1ccccc1)c1ccccc1 (stereo not given) | > 100 µM | > 100 | > 100 | > 100 | > 100 | > 100 | > 100 | > 100 | > 100 | > 100
ClC(Cl)(Cl)C1=N[C@H]2[C@H](Br)[C@@H]3O[C@@H](c4ccccc4)[C@H](c4ccccc4)O[C@@H]3[C@H]2O1 | 36.2 µM | 63.7 | 39 | 73.7 | 37.1 | 31.2 | 33.3 | 31.3 | 38.5 | 31.2
CCOC(=O)N1CCN(c2ccc3c(C)cc(C)nc3n2)CC1 | > 100 µM | > 100 | > 100 | > 100 | > 100 | > 100 | > 100 | > 100 | > 100 | > 100
CN(C(=O)Cc1ccc(Cl)c(Cl)c1)[C@H]1CCCC[C@@H]1[N+]1(C)CCCC1 | > 100 µM | > 100 | > 100 | > 100 | > 100 | > 100 | > 100 | > 100 | > 100 | > 100
O=C1Sc2ccc(Br)cc2C(=O)Sc2ccccc21 | 23.6 µM | 39.3 | 26.9 | 25.5 | 42.7 | 29.5 | 24 | 36.6 | 27.1 | 27.6
COc1ccccc1C1SCC(=O)N1c1ccc(-c2ccc(-n3c(-c4ccccc4)nc4ccccc4c3=O)cc2)cc1 (stereo not given) | > 100 µM | > 100 | > 100 | > 100 | > 100 | > 100 | > 100 | > 100 | > 100 | > 100
Cc1ccc(OCC2OC(n3cnc4c(N(C)C)nc(Br)nc43)CC2Oc2ccc(C)cc2)cc1 (stereo not given) | > 100 µM | > 100 | > 100 | > 100 | > 100 | > 100 | > 100 | > 100 | > 100 | > 100
FC(F)(F)c1ccccc1N1CCN(c2nc(-c3cccs3)nc3ccc(Br)cc23)CC1 | 55.9 µM | > 100 | > 100 | > 100 | > 100 | 30.9 | > 100 | 74.1 | > 100 | > 100
O=C1C(NCCc2ccc(O)c(O)c2)=CC(=O)c2ncccc21 | 18.4 µM | 45.2 | 29 | 24 | 28.8 | 15.4 | 57.3 | 21.5 | 24.4 | 12.8
CN(C)c1nc(NC23CC4CC(CC(C4)C2)C3)nc(N(C)C)n1 | > 71.5 µM | 56 | > 57.1 | > 100 | > 69.9 | 24.8 | > 100 | 63.1 | > 77.2 | > 55.3
CCCCCCCCCCCCCCCCCCNc1ccn(C2OC(COP(=O)(O)OCC3CCC(n4cnc5c(=O)[nH]cnc54)O3)C(O)C2O)c(=O)n1 (stereo not given) | > 100 µM | > 100 | > 100 | > 100 | > 100 | > 100 | > 100 | > 100 | > 100 | > 100
COC(=O)c1ccccc1C#CC#Cc1ccccc1C(=O)OC | > 10 µM | > 10 | > 10 | > 10 | > 10 | > 10 | > 10 | > 10 | > 10 | > 10
[Se]=P(c1ccccc1)(c1ccccc1)c1ccc(C(c2ccccc2)=P(c2ccccc2)(c2ccccc2)c2ccccc2)cc1 | 2.51 µM | 5.24 | 4.7 | 14.5 | 20.2 | 1.64 | 8.02 | 6.21 | 20.1 | 5.25
O=C1CSC(/C(=C\c2ccc(Cl)cc2)c2nc3ccccc3[nH]2)=N1 | 31.6 µM | 53.2 | 30.4 | 26.2 | 32.6 | 24.6 | 32 | 34.5 | 7.64 | 25.6
O=c1[nH]nc(-c2ccccc2)n1/N=C/c1c[nH]c2ccccc12 | > 100 µM | > 100 | > 100 | > 100 | > 100 | > 100 | > 100 | > 100 | > 100 | > 100
COC(=O)C1=C(C)NC2(O)C=CC(=O)C3C(=O)N(c4ccccc4)C(=O)C132 (stereo not given) | 88 µM | > 100 | > 100 | > 100 | 78.7 | > 100 | > 100 | > 100 | > 100 | > 100

SMILES | TGI (MALME-3M melanoma) | TGI (HS 578T breast) [µM] | TGI (HCT-116 colon) [µM] | TGI (DU-145 prostate) [µM] | TGI (SK-MEL-28 melanoma) [µM] | TGI (SK-MEL-5 melanoma) [µM] | TGI (OVCAR-8 ovarian) [µM] | TGI (SK-MEL-2 melanoma) [µM] | TGI (UO-31 renal) [µM] | TGI (U251 CNS) [µM]
Clc1ccc(Cc2nc3ccc(CCN4CCN(c5ccccc5)CC4)cc3[nH]2)cc1 | 32.9 µM | 47.3 | 24.6 | 44 | 54.3 | 25.3 | 36.3 | 30.6 | 20.3 | 26.5
CNc1ccc(-c2nc3cc(C)ccc3o2)cc1 | > 100 µM | > 100 | > 100 | > 100 | > 100 | > 100 | > 100 | > 100 | > 100 | > 100
CCOC(=O)/C(=C\c1ccc(N(C)C)cc1)S(=O)(=O)C(F)(F)C(F)(F)C(F)(F)C(F)(F)F | > 100 µM | > 100 | > 100 | > 100 | > 100 | > 100 | > 100 | > 100 | > 100 | > 100
O=C(Nc1cccc(C(F)(F)F)c1)O/N=C(/Cl)CCl | > 100 µM | > 100 | > 100 | > 100 | > 100 | > 100 | > 100 | > 100 | > 100 | > 100
CCOC(=O)Nc1c(C#N)[n+]([O-])c2cc(Cl)c(Cl)cc2[n+]1[O-] | 37.6 µM | > 100 | 59.3 | > 100 | 30.7 | 24.9 | 37.2 | 48 | 31.4 | 32.6
COc1cccc(-c2ccc3c4c2O[C@H]2c5[nH]c6ccccc6c5C[C@@]5(O)[C@@H](C3)N(CC3CC3)CC[C@]425)c1 | 2.88 µM | 3.33 | 2.99 | 6.91 | > 23.1 | 3.85 | 3.11 | 3.69 | 3.1 | 3.15
C=CCOCn1cnc2c(N)ncnc21 | > 100 µM | > 100 | > 100 | > 100 | > 100 | > 100 | > 100 | > 100 | > 100 | > 100
COc1ccc2cc1Oc1ccc(cc1)C(Sc1ccccc1)CCOC(=O)CC2 (stereo not given) | > 100 µM | > 100 | > 100 | > 100 | > 100 | > 100 | > 100 | > 100 | > 100 | > 100
COC1=C(N=[N+]=[N-])C(=O)c2ncccc2C1=O | 5.03 µM | 48.6 | 6.57 | 35.1 | 27.4 | 23.4 | 7.56 | 37.5 | 27.6 | 27.7
COc1cc(OC)c2c(O)c3c(cc2c1)CC(C)(C)CC3=O | > 100 µM | > 100 | > 100 | > 100 | > 100 | > 100 | > 100 | > 100 | > 100 | > 100
O=[N+]([O-])/C(C(Cl)=C(Cl)Cl)=C1\NCCO1 | > 100 µM | 90.5 | > 100 | > 100 | > 100 | > 100 | > 100 | > 100 | > 100 | > 100
O=C1NC(N/N=C\C(O)C(O)C(O)CO)=N/C1=C/c1ccc(Cl)cc1 (stereo not given) | 80.2 µM and > 100 µM | > 100 | > 100 | > 100 | > 100 | > 100 | > 100 | > 100 | > 100 | > 100
O=C(Nc1nc2c(=O)[nH]cnc2s1)c1ccccc1 | > 100 µM | > 100 | > 100 | > 100 | > 100 | > 100 | > 100 | > 100 | > 100 | > 100
CC(C)CCC[C@@H](C)[C@H]1CCC2C3CC=C4C[C@@H](Oc5c6ccccc6nc6ccccc56)CCC4C3CCC21 (stereo not given in full) | > 50 µM | > 50 | > 50 | > 50 | > 50 | > 50 | > 50 | > 50 | > 50 | > 50
Clc1cc2c(c(CSC3=NCN(CC4CC4)CN3)c1)OCOC2 | 34.2 µM | > 100 | 42.8 | > 100 | 38.3 | 32.2 | > 100 | 35.4 | 37.1 | 53.1
Cc1ccc(N=Nc2c(O)ccc3cc(S(=O)(=O)O)ccc23)c(C)c1 | > 100 µM | > 100 | > 100 | > 100 | > 100 | > 100 | > 100 | > 100 | > 100 | > 100
C=CCOc1ccccc1N=N/C(C#N)=N\Nc1ccccc1OCC=C | > 100 µM | > 100 | > 100 | > 100 | > 100 | > 100 | > 100 | > 100 | > 100 | > 100
